The values below come from patent publication US10695337B2, “Piperidin-4-yl azetidine derivatives as JAK1 inhibitors” (Incyte Corporation, priority 2010, dated 2020).

The target of this experiment is human JAK1 (a.a. 837-1142). As to the kind of experiment: In vitro JAK kinase assay (HTRF, phosphorylation of a biotinylated peptide), JAK1. The class given is biochemical. Particulars: measured at 1 mM ATP; JAK2 IC50 / JAK1 IC50. The gist of the method:
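N-terminally His-tagged catalytic domains, baculovirus-expressed in insect cells and purified, were used as enzyme. Reactions ran 1 hr at room temperature and were stopped with a mix of 45 mM EDTA, 300 nM SA-APC and 6 nM Eu-Py20. The HTRF signal was read after 40 min of antibody binding.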
On the technique in general: In TR-FRET formats the signal depends on donor and acceptor labels being close together.
For `N#CCC1(n2cc(-c3ncnc4[nH]ccc34)cn2)CN(C2CCN(C(=O)Nc3ccccc3OC(F)(F)F)CC2)C1` [Example 158, 4-{3-(cyanomethyl)-3-[4-(7H-pyrrolo[2,3-d]pyrimidin-4-yl)-1H-pyrazol-1-yl]azetidin-1-yl}-N-[2-(trifluoromethoxy)phenyl]piperidine-1-carboxamide], the “IC50 Ratio JAK2/JAK1” value came to 12.0.

As for `N#CCC1(n2cc(-c3ncnc4[nH]ccc34)cn2)CN(C2CCN(C(=O)Nc3cscc3Br)CC2)C1` [Example 159, N-(4-bromo-3-thienyl)-4-{3-(cyanomethyl)-3-[4-(7H-pyrrolo[2,3-d]pyrimidin-4-yl)-1H-pyrazol-1-yl]azetidin-1-yl}piperidine-1-carboxamide], the “IC50 Ratio JAK2/JAK1” value is 15.0.

As to `N#CCC1(n2cc(-c3ncnc4[nH]ccc34)cn2)CN(C2CCN(C(=O)Nc3ccccc3Cl)CC2)C1` [Example 163, N-(2-chlorophenyl)-4-{3-(cyanomethyl)-3-[4-(7H-pyrrolo[2,3-d]pyrimidin-4-yl)-1H-pyrazol-1-yl]azetidin-1-yl}piperidine-1-carboxamide], the “IC50 Ratio JAK2/JAK1” value was 12.0.

On to `N#CCC1(n2cc(-c3ncnc4[nH]ccc34)cn2)CN(C2CCN(C(=O)Nc3cccc(C(F)(F)F)c3)CC2)C1` [Example 166, 4-{3-(cyanomethyl)-3-[4-(7H-pyrrolo[2,3-d]pyrimidin-4-yl)-1H-pyrazol-1-yl]azetidin-1-yl}-N-[3-(trifluoromethyl)phenyl]piperidine-1-carboxamide], for which the “IC50 Ratio JAK2/JAK1” value is given as 5.5.

Consider `N#CCC1(n2cc(-c3ncnc4[nH]ccc34)cn2)CN(C2CCN(C(=O)Nc3ccc(C(F)(F)F)cc3)CC2)C1` [Example 167, 4-{3-(cyanomethyl)-3-[4-(7H-pyrrolo[2,3-d]pyrimidin-4-yl)-1H-pyrazol-1-yl]azetidin-1-yl}-N-[4-(trifluoromethyl)phenyl]piperidine-1-carboxamide], for which the “IC50 Ratio JAK2/JAK1” value worked out at 2.0.

For `Cc1ccc(Cl)cc1NC(=O)N1CCC(N2CC(CC#N)(n3cc(-c4ncnc5[nH]ccc45)cn3)C2)CC1` [Example 168, N-(5-chloro-2-methylphenyl)-4-{3-(cyanomethyl)-3-[4-(7H-pyrrolo[2,3-d]pyrimidin-4-yl)-1H-pyrazol-1-yl]azetidin-1-yl}piperidine-1-carboxamide], the “IC50 Ratio JAK2/JAK1” value worked out at 2.6.

Regarding `N#CCC1(n2cc(-c3ncnc4[nH]ccc34)cn2)CN(C2CCN(C(=O)Nc3ccccc3F)CC2)C1` [Example 169, 4-{3-(cyanomethyl)-3-[4-(7H-pyrrolo[2,3-d]pyrimidin-4-yl)-1H-pyrazol-1-yl]azetidin-1-yl}-N-(2-fluorophenyl)piperidine-1-carboxamide], the “IC50 Ratio JAK2/JAK1” value is reported as 5.5.

Regarding `N#CCC1(n2cc(-c3ncnc4[nH]ccc34)cn2)CN(C2CCN(C(=O)Nc3cccc(C(F)(F)F)c3F)CC2)C1` [Example 170, 4-{3-(cyanomethyl)-3-[4-(7H-pyrrolo[2,3-d]pyrimidin-4-yl)-1H-pyrazol-1-yl]azetidin-1-yl}-N-[2-fluoro-3-(trifluoromethyl)phenyl]piperidine-1-carboxamide], the “IC50 Ratio JAK2/JAK1” value worked out at 6.9.

Turning to `N#CCC1(n2cc(-c3ncnc4[nH]ccc34)cn2)CN(C2CCN(C(=O)Nc3ccc(F)cc3F)CC2)C1` [Example 171, 4-{3-(cyanomethyl)-3-[4-(7H-pyrrolo[2,3-d]pyrimidin-4-yl)-1H-pyrazol-1-yl]azetidin-1-yl}-N-(2,4-difluorophenyl) piperidine-1-carboxamide], the “IC50 Ratio JAK2/JAK1” value came to 7.5.

In the case of `N#CCC1(n2cc(-c3ncnc4[nH]ccc34)cn2)CN(C2CCN(C(=O)Nc3cc(F)cc(F)c3F)CC2)C1` [Example 173, 4-{3-(cyanomethyl)-3-[4-(7H-pyrrolo[2,3-d]pyrimidin-4-yl)-1H-pyrazol-1-yl]azetidin-1-yl}-N-(2,3,5-trifluorophenyl)piperidine-1-carboxamide], the “IC50 Ratio JAK2/JAK1” value is 5.7.

As to `N#CCC1(n2cc(-c3ncnc4[nH]ccc34)cn2)CN(C2CCN(C(=O)Nc3cc(F)ccc3F)CC2)C1` [Example 174, 4-{3-(cyanomethyl)-3-[4-(7H-pyrrolo[2,3-d]pyrimidin-4-yl)-1H-pyrazol-1-yl]azetidin-1-yl}-N-(2,5-difluorophenyl) piperidine-1-carboxamide], the “IC50 Ratio JAK2/JAK1” value is reported as 7.1.

In the case of `N#CCC1(n2cc(-c3ncnc4[nH]ccc34)cn2)CN(C2CCN(C(=O)Nc3cc(F)cc(F)c3)CC2)C1` [Example 175, 4-{3-(cyanomethyl)-3-[4-(7H-pyrrolo[2,3-d]pyrimidin-4-yl)-1H-pyrazol-1-yl]azetidin-1-yl}-N-(3,5-difluorophenyl) piperidine-1-carboxamide], the “IC50 Ratio JAK2/JAK1” value was determined as 3.6.

As to `N#CCC1(n2cc(-c3ncnc4[nH]ccc34)cn2)CN(C2CCN(C(=O)Nc3ccc(F)c(F)c3)CC2)C1` [Example 176, 4-{3-(cyanomethyl)-3-[4-(7H-pyrrolo[2,3-d]pyrimidin-4-yl)-1H-pyrazol-1-yl]azetidin-1-yl}-N-(3,4-difluorophenyl) piperidine-1-carboxamide], the “IC50 Ratio JAK2/JAK1” value worked out at 5.1.

Consider `N#CCC1(n2cc(-c3ncnc4[nH]ccc34)cn2)CN(C2CCN(C(=O)Nc3cccc(Cl)c3F)CC2)C1` [Example 177, N-(3-chloro-2-fluorophenyl)-4-{3-(cyanomethyl)-3-[4-(7H-pyrrolo[2,3-d]pyrimidin-4-yl)-1H-pyrazol-1-yl]azetidin-1-yl}piperidine-1-carboxamide], for which the “IC50 Ratio JAK2/JAK1” value stood at 8.5.

For the molecule `N#CCC1(n2cc(-c3ncnc4[nH]ccc34)cn2)CN(C2CCN(C(=O)Nc3ccc(Cl)cc3F)CC2)C1` [Example 178, N-(4-chloro-2-fluorophenyl)-4-{3-(cyanomethyl)-3-[4-(7H-pyrrolo[2,3-d]pyrimidin-4-yl)-1H-pyrazol-1-yl]azetidin-1-yl}piperidine-1-carboxamide], the “IC50 Ratio JAK2/JAK1” value amounted to 6.5.

On to `N#CCC1(n2cc(-c3ncnc4[nH]ccc34)cn2)CN(C2CCN(C(=O)Nc3ccsc3)CC2)C1` [Example 179, 4-{3-(cyanomethyl)-3-[4-(7H-pyrrolo[2,3-d]pyrimidin-4-yl)-1H-pyrazol-1-yl]azetidin-1-yl}-N-3-thienylpiperidine-1-carboxamide], for which the “IC50 Ratio JAK2/JAK1” value stood at 3.8.

On to `COc1ccccc1NC(=O)N1CCC(N2CC(CC#N)(n3cc(-c4ncnc5[nH]ccc45)cn3)C2)CC1` [Example 180, 4-{3-(cyanomethyl)-3-[4-(7H-pyrrolo[2,3-d]pyrimidin-4-yl)-1H-pyrazol-1-yl]azetidin-1-yl}-N-(2-methoxyphenyl)piperidine-1-carboxamide], for which the “IC50 Ratio JAK2/JAK1” value amounted to 4.0.

On to `COc1cccc(NC(=O)N2CCC(N3CC(CC#N)(n4cc(-c5ncnc6[nH]ccc56)cn4)C3)CC2)c1` [Example 181, 4-{3-(cyanomethyl)-3-[4-(7H-pyrrolo[2,3-d]pyrimidin-4-yl)-1H-pyrazol-1-yl]azetidin-1-yl}-N-(3-methoxyphenyl)piperidine-1-carboxamide], for which the “IC50 Ratio JAK2/JAK1” value stood at 4.9.

Regarding `N#CCC1(n2cc(-c3ncnc4[nH]ccc34)cn2)CN(C2CCN(C(=O)Nc3ccc(OC(F)(F)F)cc3)CC2)C1` [Example 182, 4-{3-(cyanomethyl)-3-[4-(7H-pyrrolo[2,3-d]pyrimidin-4-yl)-1H-pyrazol-1-yl]azetidin-1-yl}-N-[4-(trifluoromethoxy)phenyl]piperidine-1-carboxamide], the “IC50 Ratio JAK2/JAK1” value amounted to 3.7.

As to `N#CCC1(n2cc(-c3ncnc4[nH]ccc34)cn2)CN(C2CCN(C(=O)Nc3cccc(Cl)c3)CC2)C1` [Example 183, N-(3-chlorophenyl)-4-{3-(cyanomethyl)-3-[4-(7H-pyrrolo[2,3-d]pyrimidin-4-yl)-1H-pyrazol-1-yl]azetidin-1-yl}piperidine-1-carboxamide], the “IC50 Ratio JAK2/JAK1” value turned out to be 3.8.

As to `N#CCC1(n2cc(-c3ncnc4[nH]ccc34)cn2)CN(C2CCN(C(=O)Nc3ccc(Cl)cc3)CC2)C1` [Example 184, N-(4-chlorophenyl)-4-{3-(cyanomethyl)-3-[4-(7H-pyrrolo[2,3-d]pyrimidin-4-yl)-1H-pyrazol-1-yl]azetidin-1-yl}piperidine-1-carboxamide], the “IC50 Ratio JAK2/JAK1” value is 3.9.

As for `Cc1ccccc1NC(=O)N1CCC(N2CC(CC#N)(n3cc(-c4ncnc5[nH]ccc45)cn3)C2)CC1` [Example 185, 4-{3-(cyanomethyl)-3-[4-(7H-pyrrolo[2,3-d]pyrimidin-4-yl)-1H-pyrazol-1-yl]azetidin-1-yl}-N-(2-methylphenyl) piperidine-1-carboxamide], the “IC50 Ratio JAK2/JAK1” value is given as 9.5.

Consider `COc1ccc(OC)c(NC(=O)N2CCC(N3CC(CC#N)(n4cc(-c5ncnc6[nH]ccc56)cn4)C3)CC2)c1` [Example 186, 4-{3-(cyanomethyl)-3-[4-(7H-pyrrolo[2,3-d]pyrimidin-4-yl)-1H-pyrazol-1-yl]azetidin-1-yl}-N-(2,5-dimethoxyphenyl)piperidine-1-carboxamide], for which the “IC50 Ratio JAK2/JAK1” value is 5.5.

Consider `Cc1ccc(NC(=O)N2CCC(N3CC(CC#N)(n4cc(-c5ncnc6[nH]ccc56)cn4)C3)CC2)c(C)n1` [Example 189, 4-{3-(cyanomethyl)-3-[4-(7H-pyrrolo[2,3-d]pyrimidin-4-yl)-1H-pyrazol-1-yl]azetidin-1-yl}-N-(2,6-dimethylpyridin-3-yl)piperidine-1-carboxamide], for which the “IC50 Ratio JAK2/JAK1” value turned out to be 3.5.

Take `N#CCC1(n2cc(-c3ncnc4[nH]ccc34)cn2)CN(C2CCN(C(=O)Nc3nccs3)CC2)C1` [Example 190, 4-{3-(cyanomethyl)-3-[4-(7H-pyrrolo[2,3-d]pyrimidin-4-yl)-1H-pyrazol-1-yl]azetidin-1-yl}-N-1,3-thiazol-2-ylpiperidine-1-carboxamide]: the “IC50 Ratio JAK2/JAK1” value amounted to 2.1.

As to `Cc1csc(NC(=O)N2CCC(N3CC(CC#N)(n4cc(-c5ncnc6[nH]ccc56)cn4)C3)CC2)n1` [Example 191, 4-{3-(cyanomethyl)-3-[4-(7H-pyrrolo[2,3-d]pyrimidin-4-yl)-1H-pyrazol-1-yl]azetidin-1-yl}-N-(4-methyl-1,3-thiazol-2-yl)piperidine-1-carboxamide], the “IC50 Ratio JAK2/JAK1” value is reported as 1.4.
